According to patent US11214803B2, “Modulators of YAP1 expression” (Ionis Pharmaceuticals, Inc., priority 2019, dated 2022):
Strand notation (5' to 3'): a small letter for the sugar, then the base; units joined by * are phosphorothioate-linked, units joined directly phosphodiester-linked; [ ] holds rarer units or linkages, { } end groups; capitals alone tell only the bases. k = constrained ethyl (cEt); [5mC] = 5-methylcytosine; d = 2'-deoxy (DNA)

Tested on: Yap1 mRNA
Assay: Dose-dependent inhibition of human Yap1 in A-431 cells (Example 8, 10,000 cells per well, RTS4814)
Format: cell-based
Conditions: free uptake, approximately 48 hours, RTS4814; for Yap1 mRNA, % UTC: A-431 cells, 10,000 cells per well; for IC50: A-431 cells, linear regression on log/linear plot
Summary of the method: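 Yap1 mRNA, normalized to RIBOGREEN total RNA and expressed as % untreated control, was read with RTS4814 about 48 h after free-uptake oligonucleotide treatment of A-431 cells at 10,000 cells/well. IC50 derived by linear regression of log/linear data.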

Substance | Yap1 mRNA, % UTC (31.3 nM) | Yap1 mRNA, % UTC (125.0 nM) | Yap1 mRNA, % UTC (500.0 nM) | Yap1 mRNA, % UTC (2000.00 nM) | IC50
1076260 (k[5mC]*kT*kT*dA*dA*dT*dT*dT*dA*dA*d[5mC]*dT*d[5mC]*k[5mC]*kT*kG; antisense) [compound 1076260] | 61 % UTC | 30 % UTC | 12 % UTC | 5 % UTC | 50 nM
1075081 (antisense kG*kA*kT*dT*dA*d[5mC]*dA*dA*dA*dG*dA*d[5mC]*dA*kG*k[5mC]*k[5mC]) [compound 1075081] | 76 % UTC | 50 % UTC | 22 % UTC | 9 % UTC | 100 nM
1074274 (antisense kG*kT*kT*d[5mC]*dT*dT*dA*dT*dG*dG*dT*dT*dT*kA*kT*kA) [compound 1074274] | 42 % UTC | 14 % UTC | 7 % UTC | 5 % UTC | < 20 nM
1075689 (k[5mC]*kA*kA*d[5mC]*dT*dA*dT*dA*d[5mC]*dA*dA*dG*dG*k[5mC]*kA*kA; antisense) [compound 1075689] | 97 % UTC | 59 % UTC | 19 % UTC | 8 % UTC | 200 nM
1074409 (kG*kG*kA*dT*dT*dA*dA*dA*dG*dT*dA*dT*d[5mC]*kT*kT*kG; antisense) [compound 1074409] | 60 % UTC | 30 % UTC | 13 % UTC | 7 % UTC | 40 nM
1075458 (antisense k[5mC]*k[5mC]*kA*d[5mC]*dA*dA*dT*dA*dT*dA*d[5mC]*dT*d[5mC]*k[5mC]*kA*kA) [compound 1075458] | 74 % UTC | 43 % UTC | 17 % UTC | 6 % UTC | 100 nM
1074565 (DNA kA*k[5mC]*kT*dG*dA*dA*dT*dT*d[5mC]*d[5mC]*dA*dA*dT*k[5mC]*kG*kA; antisense) [compound 1074565] | 47 % UTC | 20 % UTC | 9 % UTC | 6 % UTC | < 20 nM
1075712 (kG*kA*k[5mC]*dG*d[5mC]*dG*dA*dA*dA*dT*dA*d[5mC]*dT*kT*kA*k[5mC]; antisense) [compound 1075712] | 69 % UTC | 38 % UTC | 13 % UTC | 7 % UTC | 100 nM
1075749 (kA*kA*kT*dT*dA*dT*dG*dA*dA*dT*dG*dA*dT*kG*kG*kG; antisense) [compound 1075749] | 46 % UTC | 22 % UTC | 7 % UTC | 4 % UTC | < 20 nM
1075242 (k[5mC]*kA*kG*dG*dG*dA*dT*dA*dA*dT*dT*dA*d[5mC]*kT*kA*kA; antisense) [compound 1075242] | 71 % UTC | 39 % UTC | 18 % UTC | 12 % UTC | 100 nM
1076070 (kA*kT*kT*dA*dG*dT*dA*dA*dT*dG*d[5mC]*dA*d[5mC]*kA*kG*kG; antisense) [compound 1076070] | 55 % UTC | 17 % UTC | 8 % UTC | 6 % UTC | < 20 nM
1074817 (k[5mC]*kT*kG*dA*dA*dT*dA*dT*dT*dG*d[5mC]*d[5mC]*dA*k[5mC]*k[5mC]*k[5mC]; antisense) [compound 1074817] | 50 % UTC | 22 % UTC | 13 % UTC | 11 % UTC | < 20 nM
1076426 (kA*k[5mC]*kG*dG*dG*dA*dA*dA*dA*dT*dT*d[5mC]*dT*kG*kG*kA; antisense) [compound 1076426] | 68 % UTC | 46 % UTC | 24 % UTC | 18 % UTC | 100 nM
1076459 (k[5mC]*kT*kT*d[5mC]*dA*dA*d[5mC]*dA*dA*dG*dA*d[5mC]*dA*kG*kG*kT; antisense) [compound 1076459] | 67 % UTC | 32 % UTC | 13 % UTC | 7 % UTC | 100 nM
1075744 (kT*kT*k[5mC]*dG*dG*dG*dT*dT*dA*dG*d[5mC]*dA*dG*kA*k[5mC]*kT; antisense) [compound 1075744] | 55 % UTC | 22 % UTC | 9 % UTC | 7 % UTC | < 20 nM
